This note sets out measurements from US9902761B2, “Polypeptides, nucleic acids and uses thereof” (AGENCY FOR SCIENCE, TECHNOLOGY AND RESEARCH, priority 2013, dated 2018).

The test system of one data set is HIV-1 NL43. The data set can be described thus: HIV inhibition assay in P4C5 HeLa cells (β-gal activity). As to conditions: CXCR4-tropic strain. Type of data set: cell-based.
The test system of another data set is VSV-G pseudotyped virus. It is filed as cell-based, HIV (VSV).
In a further data set the test system is HIV-1 NLAD8. The data set can be described thus: HIV inhibition assay in P4C5 HeLa cells (β-gal activity). It is filed as cell-based. As to conditions: CCR5-tropic virus.
Data set [1] relates to hESCs. It is filed as cell-based, human. As to conditions: data not shown.
The test system of data set [2] is hESCs. In words: insulin replacement assay in hESCs. It is filed as cell-based, human. As to conditions: SHEF4 and HESC3 hESCs, 24 hours of growth without INSULIN. The procedure: For insulin replacement assays, SHEF4 or HESC3 hESCs were cultured in TSER-E5 (Stem Cell Technologies) supplemented with TGF-β (5 ng/ml, R&D Systems) and bFGF (100 ng/ml, Invitrogen) with and without INSULIN (10 ug/ml, SIGMA).

The next data set has as its target T1, ELA (Homo sapiens, UniProt P0DMC3).
T1 construct: ELA is an endogenous secreted peptide that is essential for the survival and self-renewal of hESCs; endogenous in cells; host or cells: hESCs (Shef4 / Shef4TetR5)
T1 sequence (P0DMC3 23-54): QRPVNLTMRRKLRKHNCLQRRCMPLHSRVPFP
In words: extracellular neutralizing assay with affinity purified anti-ELA antibodies in hESC culture. It is filed as cell-based. As to conditions: peptide added with α N antibodies.

Data set [3] deals with hESCs. In words: xCELLigence real time growth assay, cell counts and colony size of hESCs. Type of data set: cell-based, human. The procedure: Feeder-free hESCs were cultured in clumps in mTSER1 (Stem Cell Technologies) on Matrigel (BD 354277).
(§1) hESCs were dissociated into single cells using Accutase (Stem Cell Technologies) and plated in the presence of 10 μM Y-27632 (ROCK inhibitor) for 12 hours (Watanabe et al., 2007).
For xCELLigence real time growth assays, 4000 cells were plated per well of an E-plate (ACEA Biosciences) with media changes every 48 hours.
Recombinant ELA was added at 2.5 uM (or 10 μg/ml). Cell cycle studies were performed with Click-iT EDU staining kit (Invitrogen) and by performing a double thymidine block (2.5 mM thymidine; 16 hour block, 8 hour release, 16 hour block) followed by DAPI staining for DNA content at the indicated times following release.

A further data set deals with PI3K/AKT pathway. The data set can be described thus: signaling pathway assay in starved hESCs pulsed with peptide (SDS-PAGE, western). The settings on record: 5 uM peptide after 2-hour starvation. Type of data set: cell-based, human. The procedure:
To assay the signaling pathway activated by ELA, hESCs were dissociated and plated in mTSER1 for 48 hours, followed by a 2-hour starvation in DMEM/F12. Synthetically produced ELA or ELA^RR>GG peptides, dialyzed against PBS to remove any residual synthesis buffers, were added at a final concentration of 5 uM (or as indicate(D) for the indicated period of time. Where applicable, PI3K inhibitors LY294002 (5 uM) and Wortmannin (1 uM) were added 30 minutes before pulsing with ELA peptides. Cells were lysed with PhosphoSafe™ (Millipore) for SDS-PAGE.

The test system of data set [4] is hESCs. In words: stress-induced apoptosis of hESCs by ActinomycinD. The settings on record: for resistance or sensitivity to ActinomycinD: nanomolar concentrations of ActinomycinD. Type of data set: cell-based, human. The procedure: To induce apoptosis, hESCs were treated with the indicated doses of ActinomycinD (Sigma) or ionizing radiation followed by Aqueous One Cell Titer (Promega) or CASPASE GLO3/7 (Promega) assays 12 hours post-treatment.

The test system of data set [5] is hESCs. In words: survival of hESCs after single-cell dissociation (anoikis). It is filed as cell-based, human. The settings on record: with or without Y-27632. The procedure: as §1
Data set [6] relates to hESCs. The data set can be described thus: stress-induced apoptosis of hESCs by ionizing radiation. It is filed as cell-based, human.
Data set [7] concerns hESCs. In words: pluripotency markers and colony morphology of knockdown hESCs. It is filed as cell-based, human. As to conditions: prolonged depletion. The procedure: To generate stable inducible knockdown of ELA in hESCs, the sequence […] (SEQ ID NO: 132) targeting the 3′UTR of ELA was cloned into pSUPERIOR (Oliogoengine) and nulcleofected (Lonza) into Shef4TetR5 hESCs (Zafarana et al., 2009). Neomycin-resistant cells were clonally expanded and assayed for doxycycline (20 ng/ml)-inducible knockdown. Data from one representative clone (ShefTetR5 shELA) are shown in this paper. Shef4TetR5 shβ2M were derived as previously described (Zafarana et al., 2009). Unless otherwise stated, ELA knockdown was induced on Day −4 with 20 ng/ml doxycycline to generate shELA cells.

Data set [8] in a line: teratoma analysis after subcutaneous injection of hESCs. The settings on record: 10 million cells subcutaneously, day 60. Type of data set: in vivo, SCID mice. The procedure: Shef4TetR5-shELA cells were cultured in the presence (shELA) or absence (Control) of 20 ng/ml doxycycline for 3 passages (4 days/passage). Cells were harvested with Accutase (Stemcell Technologies) and resuspended in 1 part Matrigel to 2 parts mTSERL. 10 million cells in 200 μl were injected subcutaneously into the right hind paunches of SCID mice. shELA-injected mice were fed doxycycline (20 μg/ml) for 3 weeks following injection. Mice were sacrificed 60 days post-injection for tumor analysis.

In data set [9] the test system is hESCs. In words: protein synthesis by incorporation of fluorescently-labeled amino acids. Type of data set: cell-based, human.
Data set [10] concerns hESCs. In words: stress-induced apoptosis of hESCs by ActinomycinD. Type of data set: cell-based, human.
For data set [11], the system named is hESCs. The data set can be described thus: directed endoderm differentiation of hESCs, SOX17+ cell count. Type of data set: cell-based, human. The procedure:
Shef4TetR5-shELA and Shef4TetR5-shβ2M cells were cultured in the presence (shELA and shβ2M respectively) or absence (Control) of 20 ng/ml doxycycline for 1 passage (4 days) and dissociated with Accutase. […] 24 hours later, the media was changed to Endo differentiation media 1 [RPMI 1640 (Gibco), 1× B-27 supplement (Invitrogen), 50 ng/ml of Activin A (R&D Systems), 25 ng/ml BMP4 (R&D Systems) and 50 ng/ml bFGF (Invitrogen)] for 3 days. On day 3, the media was changed to Endo differentiation media 2 (RPMI 1640, B27, 50 ng/ml Activin) for 2 more days of culture. Rescue experiments were performed by adding 2.5 uM of ELA peptide to Shef4TetR5-shELA concurrently with doxycycline up to day 3, when the ELA peptide is no longer necessary as judged by downregulation of endogenous ELA.
On day 5, cells were fixed with 4% paraformaldehyde and stained with α SOX17 (AF1924, R&D Systems) and DAPI. For each well, three different randomly selected fields were imaged and the number of nuclei staining positive of SOXI 7 and DAPI were counted using a custom macro in ImageJ. A minimum of two wells per condition was used for each experiment, and a minimum of two independent experiments were performed to generate the results.

Data set [12] relates to hESCs. The data set can be described thus: qPCR of mesendodermal markers in hESCs. Type of data set: cell-based, human. The procedure:
After the indicated time periods, embryoid bodies were harvested and RNA extracted using RNeasy kit ([…]). qPCR reactions were carried out using either Universal FastSlart SYBR Green Mastermix (Roche) or using the Universal Probe Library system (Roche) in tandem with Taqman Fast Mastermix (Invitrogen). Primer sequences can be found in Table E1.
(Real-time PCR tracks product formation cycle by cycle.)

For the compound `Cc1ccnc2c1NC(=O)c1cccnc1N2C1CC1` [Nevirapine, reference compound], the “inhibition of infection with HIV-1 NL43” value in the data set on HIV-1 NL43 is listed as “blocks all viruses tested”. In addition, the “inhibition of infection with VSV-G pseudotyped virus” value in the data set on VSV-G pseudotyped virus is “blocks all viruses tested”. Besides, the “inhibition of infection with HIV-1 NLAD8” value with HIV-1 NLAD8 was “blocks all viruses tested”.
With APELIN-13, the “effect on hESCs” value with hESCs [1] was “no effect on hESCs”.
On to “ELA^RR>GG: doubly mutated ELA mutant peptide (R31G, R32G), non-signaling (QRPVNLTMGGKLRKHNCLQRRCMPLHSRVPFP)”, for which the “rescue in cell viability in the absence of INSULIN” value with hESCs [2] is “exerted no effects”. The “competition of the neutralizing activity of the antibody by peptide” value with ELA was “competed out”. For the same compound, in the data set on hESCs [3] (cell counts, colony size, real-time cell indices, peptide 2.5 uM (10 μg/ml)), the “growth of hESCs relative to untreated cells” value is “without effect”. Moreover, the “phosphorylation of AKT at serine 473 and PRAS40 at threonine 246” value in the data set with PI3K/AKT pathway is on record as “not observed”. In the data set on hESCs [4], the “resistance or sensitivity to ActinomycinD” value is recorded as “no protective effect”.
Take “GTGATTCTCGTGCCTCAAC (expressed or natural sequence) [shELA, doxycycline-inducible shRNA targeting the 3′UTR of ELA in Shef4TetR5 hESCs]”: the “survival following dissociation (anoikis)” value with hESCs [5] is given as “do not survive single-cell dissociation”. In addition, the “sensitivity to gamma irradiation relative to control” value in the data set on hESCs [6] is “twice as sensitive”. For the same compound, in the data set with hESCs [6] (3 hours after 1 Gray of γ irradiation), the “activated CASPASE 3 after irradiation” value is “higher levels of activated CASPASE 3”. Moreover, in the data set with hESCs [7], the “pluripotency markers POU5F1, NANOG, SSEA3 and TRA-1-60” value was “downregulation of pluripotency markers”. For the same compound, the teratoma formation result in data set [8] was “did not form teratomas”. In the data set with hESCs [9], the protein synthesis entry is “reduced protein synthesis”. Besides, the “growth rates of knockdown hESCs seeded as single cells” value in the data set with hESCs [3] (real-time cell index, compared to control and shβ2M hESCs) is given as “markedly reduced growth rates”. Further, in the data set with hESCs [3] (relative to shβ2M hESCs), the “colony size of knockdown hESCs” value was “less than half the size”. Moreover, the “levels of MCL-1” value with hESCs [10] was “lower levels”. For the same compound, the BAX localisation result with hESCs [10] (mitochondria versus cytoplasm) is “higher levels of BAX in the mitochondria”. Besides, the “reduction over control in the number of SOX17+ cells” value in the data set on hESCs [11] (5 days directed differentiation, FIG. 6F) amounted to 45%. Also, in the data set on hESCs [11] (directed differentiation, control, shELA and shβ2M, FIG. 13C), the “reduction of SOX17 expression” value is listed as 35%. Further, in the data set on hESCs [12], the “expression of mesendodermal genes GATA6, GATA4, FOXA2, EOMES and BRA” value is reported as “conversely downregulated”. In the data set on hESCs [4], the “activated CASPASE3/7 and CASPASE 9 after ActinomycinD” value is “increased levels of activated CASPASE3/7”; the “resistance or sensitivity to ActinomycinD” value is given as “more sensitive compared to control”.
